Among the data in ChEMBL document CHEMBL5236605, “Design and synthesis of dual cathepsin L and S inhibitors and antimetastatic activity evaluation in pancreatic cancer cells” (Bioorg Med Chem Lett, 2023) are IC50 values, retold here.

SMILES strings stand for the structures.

In one assay the target is Procathepsin L (Homo sapiens, UniProt P07711). Put plainly: Inhibition of human cathepsin L.
Sequence of Procathepsin L (P07711 whole entry): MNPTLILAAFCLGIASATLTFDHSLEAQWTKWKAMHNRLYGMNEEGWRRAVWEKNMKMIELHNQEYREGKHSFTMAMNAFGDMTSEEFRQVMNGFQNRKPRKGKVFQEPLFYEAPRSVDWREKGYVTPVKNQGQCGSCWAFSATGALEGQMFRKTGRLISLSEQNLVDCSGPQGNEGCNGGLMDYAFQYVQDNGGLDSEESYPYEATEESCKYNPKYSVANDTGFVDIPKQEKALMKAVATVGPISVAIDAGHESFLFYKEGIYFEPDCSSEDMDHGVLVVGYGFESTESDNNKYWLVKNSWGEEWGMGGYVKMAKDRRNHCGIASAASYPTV
Broadly, the IC50 is the concentration at which inhibition is half-maximal. Low values mean greater potency, high ones weaker potency. Molecule `N#Cc1ccccc1N1CCN(C[C@H](O)COC[C@@H](Cc2ccccc2)NC(=O)c2ccncc2)CC1` registered a 50% inhibitory concentration (IC50) of 46.2 µM.

For the molecule `N#Cc1ccccc1N1CCN(C[C@@H](O)COC[C@@H](Cc2ccccc2)NC(=O)C2CCN(C(=O)OCc3ccccc3)CC2)CC1`, the IC50 was over 100 µM.

In turn, `N#Cc1ccccc1N1CCN(C[C@@H](O)COC[C@H](Cc2ccccc2)NS(=O)(=O)c2ccc(Br)cc2)CC1` yielded an IC50 of 5.47 µM.

`N#Cc1ccccc1N1CCN(C[C@@H](O)COC[C@@H](Cc2ccccc2)NS(=O)(=O)c2ccc(C(F)(F)F)cc2)CC1`: it took 10.5 µM to reach half-maximal inhibition (IC50). This IC50 lies about 1.9-fold higher than the previous one.

`N#Cc1ccccc1N1CCN(C[C@H](O)COC[C@H](Cc2ccccc2)NC(=O)c2ccncc2)CC1` registered an IC50 of 9.37 µM.

`COc1cccc(/C=C/C(=O)NC[C@@H](Cc2ccccc2)NS(=O)(=O)c2ccc(C(F)(F)F)cc2)c1` registered an IC50 of 51.7 µM. This IC50 is about 5.5-fold higher than that of the molecule before.

`N#Cc1ccccc1N1CCN(C[C@H](O)COC[C@@H](Cc2ccccc2)NS(=O)(=O)c2ccc(Br)cc2)CC1` showed a half-maximal inhibitory concentration (IC50) of 7.5 µM. This IC50 lies about 6.9-fold lower than the previous one.

`COc1cccc(/C=C/C(=O)NC[C@@H](Cc2ccccc2)NS(=O)(=O)c2ccc(Br)cc2)c1` registered an IC50 of 23.9 µM.

Consider `COc1ccc(/C=C/C(=O)NC[C@@H](Cc2ccccc2)NS(=O)(=O)c2ccc(Br)cc2)cc1OC`, for which the IC50 was over 100 µM.

Molecule `N#Cc1ccccc1N1CCN(C[C@@H](O)COC[C@H](Cc2ccccc2)NC(=O)C2CCN(C(=O)OCc3ccccc3)CC2)CC1` displayed a concentration for half-maximal inhibition (IC50) of 19.5 µM. This counts as double-digit micromolar.

As to `COc1cccc(/C=C/C(=O)NC[C@H](Cc2ccccc2)NS(=O)(=O)c2ccc(Br)cc2)c1`, the IC50 is over 100 µM.

As to `COc1ccc(/C=C/C(=O)NC[C@@H](Cc2ccccc2)NS(=O)(=O)c2ccc(C(F)(F)F)cc2)cc1OC`, the half-maximal inhibitory concentration (IC50) turned out to be 12.3 µM.

The target of the next assay is Cathepsin S (Homo sapiens, UniProt P25774). Put plainly: Inhibition of human cathepsin S.
Sequence of Cathepsin S (P25774 whole entry): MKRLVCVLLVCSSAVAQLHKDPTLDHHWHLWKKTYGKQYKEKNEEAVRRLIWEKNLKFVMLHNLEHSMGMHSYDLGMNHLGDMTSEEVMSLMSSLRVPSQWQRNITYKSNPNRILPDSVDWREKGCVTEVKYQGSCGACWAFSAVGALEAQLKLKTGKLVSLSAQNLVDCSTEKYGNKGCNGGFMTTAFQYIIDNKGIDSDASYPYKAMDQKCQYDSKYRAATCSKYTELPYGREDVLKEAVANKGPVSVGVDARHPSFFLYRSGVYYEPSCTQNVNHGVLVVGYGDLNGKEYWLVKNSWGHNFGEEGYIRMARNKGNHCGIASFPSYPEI
`N#Cc1ccccc1N1CCN(C[C@H](O)COC[C@@H](Cc2ccccc2)NC(=O)c2ccncc2)CC1` displayed an IC50 of 23.1 µM.

Regarding `N#Cc1ccccc1N1CCN(C[C@@H](O)COC[C@@H](Cc2ccccc2)NC(=O)C2CCN(C(=O)OCc3ccccc3)CC2)CC1`, the IC50 is over 100 µM.

As to `N#Cc1ccccc1N1CCN(C[C@@H](O)COC[C@H](Cc2ccccc2)NS(=O)(=O)c2ccc(Br)cc2)CC1`, inhibition was half-maximal at 5.46 µM (IC50).

On to `N#Cc1ccccc1N1CCN(C[C@@H](O)COC[C@@H](Cc2ccccc2)NS(=O)(=O)c2ccc(C(F)(F)F)cc2)CC1`, for which half-maximal inhibition (IC50) required 22.3 µM. This IC50 is about 4.1-fold higher than that of the molecule before.

`N#Cc1ccccc1N1CCN(C[C@H](O)COC[C@H](Cc2ccccc2)NC(=O)c2ccncc2)CC1`: the IC50 was found to be 16.1 µM.

In turn, `COc1cccc(/C=C/C(=O)NC[C@@H](Cc2ccccc2)NS(=O)(=O)c2ccc(C(F)(F)F)cc2)c1` registered a half-inhibitory concentration (IC50) of 64.5 µM. This IC50 is about 4-fold higher than that of the molecule before.

As for `N#Cc1ccccc1N1CCN(C[C@H](O)COC[C@@H](Cc2ccccc2)NS(=O)(=O)c2ccc(Br)cc2)CC1`, the IC50 is 4.38 µM.

Turning to `COc1cccc(/C=C/C(=O)NC[C@@H](Cc2ccccc2)NS(=O)(=O)c2ccc(Br)cc2)c1`, inhibition was half-maximal at 41 µM (IC50).

`COc1ccc(/C=C/C(=O)NC[C@@H](Cc2ccccc2)NS(=O)(=O)c2ccc(Br)cc2)cc1OC` showed an IC50 of over 100 µM.

The molecule `N#Cc1ccccc1N1CCN(C[C@@H](O)COC[C@H](Cc2ccccc2)NC(=O)C2CCN(C(=O)OCc3ccccc3)CC2)CC1` yielded an IC50 of 22.7 µM. This counts as double-digit micromolar.

The molecule `COc1cccc(/C=C/C(=O)NC[C@H](Cc2ccccc2)NS(=O)(=O)c2ccc(Br)cc2)c1` yielded an IC50 of over 100 µM.

For the molecule `COc1ccc(/C=C/C(=O)NC[C@@H](Cc2ccccc2)NS(=O)(=O)c2ccc(C(F)(F)F)cc2)cc1OC`, the IC50 worked out at 21.2 µM.

Another assay deals with Cathepsin B (Homo sapiens, UniProt P07858). Put plainly: Inhibition of human cathepsin B.
Regarding `N#Cc1ccccc1N1CCN(C[C@H](O)COC[C@@H](Cc2ccccc2)NC(=O)c2ccncc2)CC1`, the IC50 was over 100 µM.

The molecule `N#Cc1ccccc1N1CCN(C[C@@H](O)COC[C@@H](Cc2ccccc2)NC(=O)C2CCN(C(=O)OCc3ccccc3)CC2)CC1` displayed an IC50 of over 100 µM.

As for `N#Cc1ccccc1N1CCN(C[C@@H](O)COC[C@H](Cc2ccccc2)NS(=O)(=O)c2ccc(Br)cc2)CC1`, the IC50 was over 100 µM.

`N#Cc1ccccc1N1CCN(C[C@@H](O)COC[C@@H](Cc2ccccc2)NS(=O)(=O)c2ccc(C(F)(F)F)cc2)CC1` displayed an IC50 of over 100 µM.

Molecule `N#Cc1ccccc1N1CCN(C[C@H](O)COC[C@H](Cc2ccccc2)NC(=O)c2ccncc2)CC1` displayed an IC50 of over 100 µM.

Molecule `COc1cccc(/C=C/C(=O)NC[C@@H](Cc2ccccc2)NS(=O)(=O)c2ccc(C(F)(F)F)cc2)c1` returned an IC50 of over 100 µM.

On to `N#Cc1ccccc1N1CCN(C[C@H](O)COC[C@@H](Cc2ccccc2)NS(=O)(=O)c2ccc(Br)cc2)CC1`, for which the concentration for half-maximal inhibition (IC50) was over 100 µM.

Turning to `COc1cccc(/C=C/C(=O)NC[C@@H](Cc2ccccc2)NS(=O)(=O)c2ccc(Br)cc2)c1`, the half-maximal inhibitory concentration (IC50) is over 100 µM.

`COc1ccc(/C=C/C(=O)NC[C@@H](Cc2ccccc2)NS(=O)(=O)c2ccc(Br)cc2)cc1OC` had an IC50 of over 100 µM.

`N#Cc1ccccc1N1CCN(C[C@@H](O)COC[C@H](Cc2ccccc2)NC(=O)C2CCN(C(=O)OCc3ccccc3)CC2)CC1` registered a half-maximal inhibitory concentration (IC50) of over 100 µM.

In the case of `COc1cccc(/C=C/C(=O)NC[C@H](Cc2ccccc2)NS(=O)(=O)c2ccc(Br)cc2)c1`, the IC50 was over 100 µM.

On to `COc1ccc(/C=C/C(=O)NC[C@@H](Cc2ccccc2)NS(=O)(=O)c2ccc(C(F)(F)F)cc2)cc1OC`, for which the half-maximal inhibitory concentration (IC50) was over 100 µM.

The next assay deals with T1, Cathepsin K (Homo sapiens, UniProt P43235).
T1 sequence (P43235 whole entry): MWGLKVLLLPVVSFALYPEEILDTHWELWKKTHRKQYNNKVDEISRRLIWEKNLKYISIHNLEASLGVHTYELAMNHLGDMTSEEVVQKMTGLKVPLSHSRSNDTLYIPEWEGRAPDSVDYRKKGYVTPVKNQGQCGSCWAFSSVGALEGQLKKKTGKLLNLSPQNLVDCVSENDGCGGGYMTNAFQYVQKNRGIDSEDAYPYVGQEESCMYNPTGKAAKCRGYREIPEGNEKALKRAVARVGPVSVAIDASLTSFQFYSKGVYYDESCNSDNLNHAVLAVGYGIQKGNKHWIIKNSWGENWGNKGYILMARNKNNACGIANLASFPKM
The experiment in a line: Inhibition of human cathepsin K.
For the molecule `N#Cc1ccccc1N1CCN(C[C@H](O)COC[C@@H](Cc2ccccc2)NC(=O)c2ccncc2)CC1`, the concentration for half-maximal inhibition (IC50) was over 100 µM.

As to `N#Cc1ccccc1N1CCN(C[C@@H](O)COC[C@@H](Cc2ccccc2)NC(=O)C2CCN(C(=O)OCc3ccccc3)CC2)CC1`, the IC50 is over 100 µM.

Molecule `N#Cc1ccccc1N1CCN(C[C@@H](O)COC[C@H](Cc2ccccc2)NS(=O)(=O)c2ccc(Br)cc2)CC1` came in with an IC50 of over 100 µM.

As to `N#Cc1ccccc1N1CCN(C[C@@H](O)COC[C@@H](Cc2ccccc2)NS(=O)(=O)c2ccc(C(F)(F)F)cc2)CC1`, the half-maximal inhibitory concentration (IC50) is over 100 µM.

As to `N#Cc1ccccc1N1CCN(C[C@H](O)COC[C@H](Cc2ccccc2)NC(=O)c2ccncc2)CC1`, the half-inhibitory concentration (IC50) is over 100 µM.

On to `COc1cccc(/C=C/C(=O)NC[C@@H](Cc2ccccc2)NS(=O)(=O)c2ccc(C(F)(F)F)cc2)c1`, for which the IC50 was over 100 µM.

Regarding `N#Cc1ccccc1N1CCN(C[C@H](O)COC[C@@H](Cc2ccccc2)NS(=O)(=O)c2ccc(Br)cc2)CC1`, the concentration for half-maximal inhibition (IC50) was over 100 µM.

In the case of `COc1cccc(/C=C/C(=O)NC[C@@H](Cc2ccccc2)NS(=O)(=O)c2ccc(Br)cc2)c1`, the IC50 was over 100 µM.

Consider `COc1ccc(/C=C/C(=O)NC[C@@H](Cc2ccccc2)NS(=O)(=O)c2ccc(Br)cc2)cc1OC`, for which the half-maximal inhibitory concentration (IC50) was over 100 µM.

`N#Cc1ccccc1N1CCN(C[C@@H](O)COC[C@H](Cc2ccccc2)NC(=O)C2CCN(C(=O)OCc3ccccc3)CC2)CC1` gave an IC50 of over 100 µM.

Molecule `COc1cccc(/C=C/C(=O)NC[C@H](Cc2ccccc2)NS(=O)(=O)c2ccc(Br)cc2)c1` returned an IC50 of over 100 µM.

With `COc1ccc(/C=C/C(=O)NC[C@@H](Cc2ccccc2)NS(=O)(=O)c2ccc(C(F)(F)F)cc2)cc1OC`, the half-inhibitory concentration (IC50) is over 100 µM.
